According to ChEMBL document CHEMBL1128931, “Synthesis and biological evaluation of pyrido[2,3-b]pyrazine and pyrido[2,3-b]pyrazine-n-oxide as selective glycine antagonists” (Bioorg Med Chem Lett, 1996):

Assays:
Rattus norvegicus [1] = assay: Compound was evaluated in vivo for antagonistic activity against glycine site in NMDA induced convulsion model in rats after ip administration.; format: functional
[2] = target: Glutamate receptor ionotropic, NMDA 1 (Rattus norvegicus, UniProt P35439); assay: In vitro binding affinity for glycine site on the NMDA receptor.
Rattus norvegicus [3] = assay: Compound was evaluated in vivo for antagonistic activity against glycine site in NMDA induced convulsion model in rats after iv administration.; format: functional

| Ki [2] [nM] | Compound | ED50 (Rattus norvegicus [1]) [mg/kg] | ED50 (Rattus norvegicus [3]) [mg/kg] |
| --- | --- | --- | --- |
| 912 | Cc1c(I)c[n+]([O-])c2nc(O)c(O)nc12 | 30 |  |
| 6170 | Oc1nc2ccc(Cl)nc2nc1O |  |  |
| 372 | Cc1c(Cl)c[n+]([O-])c2nc(O)c(O)nc12 | 7 | 3 |
| 501 | Oc1nc2cc(C(F)(F)F)cnc2nc1O | 27 | 13 |
| 513 | [O-][n+]1cc(Cl)cc2nc(O)c(O)nc21 |  |  |
| 513 | [O-][n+]1c(Cl)c(C(F)(F)F)cc2nc(O)c(O)nc21 | 60 | 30 |
| 468 | Cc1nc2nc(O)c(O)nc2cc1I |  |  |
| 209 | [O-][n+]1c(Cl)c(I)cc2nc(O)c(O)nc21 |  |  |
| 282 | Cc1c(Br)c(Cl)nc2nc(O)c(O)nc12 |  | 10 |
| 191 | Cc1c(Cl)c(Cl)nc2nc(O)c(O)nc12 |  |  |
| 2880 | Cc1c(Cl)cnc2nc(O)c(O)nc12 | 20 |  |
| 457 | CCCc1c(Cl)cc2nc(O)c(O)nc2[n+]1[O-] |  |  |
| 224 | Cc1c(I)cc2nc(O)c(O)nc2[n+]1[O-] |  |  |
| 4680 | [O-][n+]1c(Cl)ccc2nc(O)c(O)nc21 |  |  |
| 537 | Cc1c(Br)c[n+]([O-])c2nc(O)c(O)nc12 | 9 | 5 |
| 2750 | CCCc1nc2nc(O)c(O)nc2c(C)c1Cl |  |  |
| 186 | Oc1nc2cc(Cl)c(Cl)nc2nc1O | 41 | 0.7 |

| Ki [2] [nM] | Compound | ED50 (Rattus norvegicus [1]) [mg/kg] | ED50 (Rattus norvegicus [3]) [mg/kg] |
| --- | --- | --- | --- |
| 1580 | Cc1c(Br)cnc2nc(O)c(O)nc12 |  |  |
| 1510 | CCCc1nc2nc(O)c(O)nc2cc1Cl |  |  |
| 112 | [O-][n+]1c(Cl)c(Cl)cc2nc(O)c(O)nc21 | 24 | 14 |
| 1580 | Oc1nc2ncc(C(F)(F)F)c(Cl)c2nc1O |  |  |
| 110 | Oc1nc2nc(Cl)c(Cl)c(Cl)c2nc1O |  |  |
| 3160 | Cc1c(Cl)c(Cl)[n+]([O-])c2nc(O)c(O)nc12 | 30 |  |
|  | Oc1nc2cc(Br)c(Cl)nc2nc1O | 100 | 20 |
| 1780 | Cc1c(I)cnc2nc(O)c(O)nc12 |  |  |
| 427 | Oc1nc2cc(C(F)(F)F)c(Cl)nc2nc1O |  | 15 |
| 741 | [O-][n+]1cc(I)cc2nc(O)c(O)nc21 | 21 |  |
| 3720 | [O-][n+]1cc(C(F)(F)F)c(Cl)c2nc(O)c(O)nc21 | 50 |  |
| 204 | Oc1nc2cc(I)c(Cl)nc2nc1O |  |  |
| 813 | Cc1nc2nc(O)c(O)nc2c(C)c1Cl |  |  |
| 112 | [O-][n+]1c(Cl)c(Br)cc2nc(O)c(O)nc21 | 45 | 18 |
| 427 | [O-][n+]1cc(C(F)(F)F)cc2nc(O)c(O)nc21 |  | 15 |
| 3020 | Cc1c(Br)c(Cl)[n+]([O-])c2nc(O)c(O)nc12 |  |  |
